In patent US12152139B2, “Composition, film, optical filter, laminate, solid-state imaging element, image display device, and infrared sensor” (FUJIFILM Corporation, priority 2018, dated 2024):
Values after ≈ are worked out from the molar mass of the structure shown.

Experiment: Solubility in propylene glycol methyl ether acetate
Assay type: physicochemical
Conditions: organic solvent or mixture, thermodynamic from solid, at 25° C., read-out: solubility in propylene glycol methyl ether acetate (compound (1))
Experimental: <Measurement of Solubility of Near Infrared Absorbing Pigment and Compound (1)>
Under atmospheric pressure, 99 to 101 g of a sample (precisely weighed value is defined as X g) was added to 1 L of propylene glycol methyl ether acetate at 25° C., and the mixture was stirred for 30 minutes. Next, the mixture was allowed to stand for 5 minutes and filtered, and the […] was dried under reduced pressure at 80° C. for 2 hours and weighed precisely (precisely weighed value is defined as Y g). Solubility of the sample dissolved in propylene glycol methyl ether acetate was calculated from the following expression. Solubility (g/L)=X−Y <Method for Quantifying Amine Compound in Composition>

Question: For `O=c1c2ccccc2[nH]c2cc3c(=O)c4ccccc4n(CCCCS(=O)(=O)O)c3cc12` [Example P3], which solubility at 30 min is on record?
Answer: ≥ 500 µg/mL

Question: Which solubility at 30 min does the source give for `O=C1C(=C2C(O)=CC(N(c3ccc(S(=O)(=O)O)cc3)c3ccc(S(=O)(=O)O)cc3)C=C2O)C(O)=C1c1c(O)cc(N(c2ccc(S(=O)(=O)O)cc2)c2ccc(S(=O)(=O)O)cc2)cc1O` (centres unmarked) [Example P2] here?
Answer: 100 to 500 µg/mL (≈ 105 to 524 µM)
